Here are results for two compounds from patent US20170121768A1, “ATRIAL FIBRILLATION THERAPY” (The University of Birmingham, priority 2014, published 2017).

Experiment [1] concerns Pitx2c+/- mouse heart (left atrium). Kind of experiment: Electrophysiological study in the isolated Langendorff-perfused beating heart, Pitx2c+/- mice. The text has this: (§1) The inventors studied the effects of the sodium channel blocker flecainide in the isolated, beating heart of wild type mice and mice with a heterozygous deletion of the Pitx2c gene. This mouse model (provided by Nigel Brown, St George's London) is an established model for reduced Pitx2 mRNA expression that is susceptible to AF. […] PITX2c^+/− and WT hearts (3-4 months old), were rapidly excised and Langendorff-perfused to record left atrial (LA) monophasic action potential duration. In this preparation, the beating heart is perfused with a warm, oxygenated modified Krebs-Henseleit solution containing (in mmol/1): NaCl 118; NaHCO3 24.88; KH2PO 1.18; Glucose 5.55; Na-Pyruvate 5; MgSO4 0.83; CaCl2 1.8; KCl 3.52 (95% O2-5% CO2, pH 7.4) at constant perfusion pressure (100±5 mmHg) and coronary flow (4±0.5 ml/min). Thereby, detailed electrophysiological measurements can be taken for 1-2 hours in the beating, functioning, intact heart (perfusate temperature 37° C., perfusion flow rate 3-5 mL/min) (Fabritz et al., Basic Res Cardiol 2003; 98:25-32). An octapolar murine electrophysiology catheter (0.5 mm electrode spacing, CIB'ER MOUSE, NuMED, Hopkinton, N.Y., USA) was inserted into the right atrium (RA) and right ventricle for pacing. Atrial and ventricular electrograms and monophasic action potential (MAP) from the left atrium were simultaneously recorded. After instrumentation, the hearts were subjected to a stabilization period of 10 minutes, followed by observation of spontaneous sinus rhythm for 5 minutes to provoke repolarization-related arrhythmias. Then the right atrium was paced at constant physiological heart rates (80-120 ms paced cycle length) for 1.5 minutes of pacing per heart rate to record steady-state action potential duration, and premature right atrial stimulation was performed using trains of 8 beats following by a premature stimulus in 2 ms steps to determine the effective refractory period (ERP) and inducibility of arrhythmias. Arrhythmias>1 second were counted. The pacing protocol was repeated after adding flecainide acetate (1 μm) to the perfusate. Experiments were accepted for analysis of action potential duration and activation time if they met published quality criteria and if MAPs were stable. […] were accepted for analysis of action potentials and activation times, and signals>0.5 mV amplitude were accepted for evaluation of arrhythmias. Recordings were manually screened for arrhythmias. Atrial fibrillation was defined as >5 closely couple polymorphic consecutive atrial ectopic beats with a cycle length shorter than sinus-rhythm cycle length.

Experiment [2] concerns wild type mouse heart (left atrium). Kind of experiment: Electrophysiological study in the isolated Langendorff-perfused beating heart, wild type mice.
Text: as §1

The test system of the next experiment is Pitx2c+/- left atria. Kind of experiment: Transmembrane potential recordings in isolated, superfused left atria, Pitx2c+/-. The note with it: sharp electrodes. Also noted: species or system mouse. On the procedure:
(§2) Transmembrane action potentials were recorded from isolated superfused left atria using borosilicate glass microelectrodes (tip resistance 15-30 MΩ), filled with 3 M KCl. […] LA were paced at different cycle lengths at 2 ms pulse width at 2× diastolic threshold through bipolar platinum electrodes. APD was analysed off line (spike 2, CED, UK). After 15 min pacing for equilibration, preparations were paced successively at increasing frequencies from 0.5 to 10 Hz, with 200 beats at each frequency to ensure steady state prior to recording.

The subject of the next experiment is wildtype left atria. Briefly: Transmembrane potential recordings in isolated, superfused left atria, wild type. The following applies: sharp electrodes. Further details: species or system mouse. On the procedure: as §2

For `O=C(NCC1CCCCN1)c1cc(OCC(F)(F)F)ccc1OCC(F)(F)F` (centres unmarked) [flecainide], the “effective refractory period (ERP)” value in experiment [1] (Pitx2c+/- hearts after flecainide perfusion, compared with wild-type) was “increases effective refractory periods”. The “suppression of inducible atrial fibrillation” value in experiment [1] (Pitx2c+/- hearts with AF at baseline (8/21), flecainide acetate 1 μm in perfusate, premature atrial stimulation) is listed as “suppressed atrial fibrillation in all Pitx2c+/− hearts”; in experiment [2] (wild type hearts, flecainide acetate 1 μm in perfusate, premature atrial stimulation) it was “did not suppress atrial fibrillation”. Further, the “atrial action potential duration (APD)” value in experiment [1] (Pitx2c+/- hearts, flecainide perfusion, paced cycle lengths 80-100-120 ms) is reported as “does not alter atrial APD”; in experiment [2] (WT hearts, flecainide perfusion, paced cycle lengths 80-100-120 ms), “does not alter atrial APD”. The post-repolarization refractoriness was found to be 12 ms in experiment [1] (Pitx2c+/- mice, 80 ms paced cycle length, flecainide perfusion) and 7.5 ms in experiment [2] (WT mice, 80 ms paced cycle length, flecainide perfusion). Further, the atrial activation times entry in experiment [1] (Pitx2c+/- mice, after flecainide perfusion) is listed as “marked effect”; in experiment [2] (wild-type mice, after flecainide perfusion), “negligible effect”. Moreover, the hearts with arrhythmias in experiment [2] (wild type hearts with flecainide (baseline 4/16), arrhythmias >1 second counted) is reported as 4/11. The resting membrane potential result in the experiment on Pitx2c+/- left atria and in the experiment on wildtype left atria was “did not alter resting membrane potential” in each case.

For the compound `CC(C)NCC(O)c1ccc(NS(C)(=O)=O)cc1` (centres unmarked) [sotalol, d,l sotalol], the “atrial APD” value was “did not alter atrial APD” in experiment [1] (Pitx2c+/- hearts, sotalol 10 μM, three pairs of mice) and “prolonged atrial APD” in experiment [2] (WT hearts, sotalol 10 μM, three pairs of mice).
